Reference: article PMC5620277, “The histone methyltransferase EZH2 as a druggable target in SHH medulloblastoma cancer stem cells” (Oncotarget, 2017)
Where two headings read alike, the source gives them in different places.

What was measured:
DAOY cells = test: Cell viability, MTS assay, DAOY cells; type: cell-based; conditions: 5 μM, after 48 h
Experimental: (§1) To evaluate cell viability cells were plated at a density of 5×10^3 cells/well in 96-well plates and were incubated with MTS solution (CellTiter 96® AQueous One Solution Promega).

SET7/9 = molecular target: T1, SET7/9 (Homo sapiens, UniProt Q8WTS6); test: Methyltransferase panel: SET7/9; type: biochemical; conditions: substrate histone H3/H4 octamer
T1 sequence (Q8WTS6 1-366): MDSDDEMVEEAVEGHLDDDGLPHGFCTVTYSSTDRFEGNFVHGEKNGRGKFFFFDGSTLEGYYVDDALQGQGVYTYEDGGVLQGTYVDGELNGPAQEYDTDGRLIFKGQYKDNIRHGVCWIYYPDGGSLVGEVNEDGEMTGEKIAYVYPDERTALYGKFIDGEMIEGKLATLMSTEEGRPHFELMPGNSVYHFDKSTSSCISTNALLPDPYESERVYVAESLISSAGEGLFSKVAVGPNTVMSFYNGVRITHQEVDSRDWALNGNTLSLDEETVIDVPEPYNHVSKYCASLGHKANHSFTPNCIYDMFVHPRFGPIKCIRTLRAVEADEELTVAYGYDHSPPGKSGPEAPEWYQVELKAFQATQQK
Experimental: (§2) MC3629 was tested in the cell free enzymatic assay (EZH2/PRC2) in 10-dose IC50 mode with 2-fold serial dilution starting from 400 μM solution, using various histone substrates (histone H3/H4 octamer, histone H3/H4 tetramer, histone H3, and core histone) and SAM as the co-substrate. […] (Figure 2B, and Supplementary Figure 2).
(§3) The appropriate methyltransferase (MT) substrate (0.05 mg/ml core histone for EZH1 complex, 0.05 mg/ml oligonucleosomes for DOT1L, 5 μM histone H3 (1-21) peptide for G9a, 0.05 mg/ml nucleosomes for MLL1 complex, 0.05 mg/ml core histone for SET7/9, 5 μM histone H4 for PRMT1, and 0.001 mg/ml poly(dI-dC) for DNMT1) was added in freshly prepared Reaction Buffer (50 mM Tris-HCl (pH 8.5), 5 mM MgCl2, 50 mM NaCl, 0.01% Brij35, 1 mM DTT, 1% DMSO). The MT enzyme was delivered into the substrate solution and the mixture was mixed gently. Afterwards, the tested compound dissolved in DMSO was delivered into the enzyme/substrate reaction mixture by using Acoustic Technology (Echo 550, LabCyte Inc. Sunnyvale, CA) in nanoliter range, and 1 μM ^3H-SAM was also added into the reaction mixture to initiate the reaction. The reaction mixture was incubated for 1 h at 30°C and then it was delivered to filter-paper for detection. The data were analyzed using Excel and GraphPad Prism software for IC50 curve fits (for EZH1 complex).

EZH2/PRC2 = molecular target: T2, EZH2/PRC2 (Homo sapiens, UniProt Q15910); test: EZH2/PRC2 cell free enzymatic assay (3H-SAM, filter-paper detection); type: biochemical
T2 construct: (amino acids 2-end) with N-terminal His tag; His tag (N); host or cells: baculovirus expression system
Experimental: as §2
Reagents: Reaction buffer; 50 mM Tris-HCl (pH 8.0), 50 mM NaCl, 1 mM EDTA, 1 mM DTT, 1 mM PMSF, 1% DMSO. Reaction Conditions: EZH2: Complex of human EZH2 (GenBank Accession No. NM_004456), (amino acids 2-end) with N-terminal His tag, MW= 86 kDa, human EED (NM_003797) (a-a 2-end) with N-terminal Flag tag, MW= 51 kDa, human SUZ12 (NM_015355) (a-a 2-end) with N-terminal His tag, MW = 87 kDa, Human AEBP2 (NM_153207) (a-a 2-end) with N-terminal His tag, MW= 53 kDa, and human RbAp48 (NM_005610) (a-a 2-end) with N-terminal His tag, MW = 48 kDa, co-expressed in baculovirus expression system. Substrate: 5 μM histone H3/H4 tetramer. Methyl donor: 1 μM S-adenosyl-L-[methyl-^3H]methionine (^3H-SAM). Enzyme: 100 nM EZH2 complex. Reaction Procedure: the indicated substrate was dissolved in freshly prepared Reaction Buffer; EZH2 was delivered into the substrate solution and mixed gently. The compound was dissolved in DMSO to a stock of 20 mM and was tested in a 10-dose IC50 mode with 2-fold serial dilution starting at 400 μM. The compound was delivered in DMSO into the EZH2 reaction mixture by using Acoustic Technology (Echo 550, LabCyte Inc. Sunnyvale, CA) in nanoliter range, and incubated for 15 min; ^3H-SAM was delivered into the reaction mixture to initiate the reaction; the reaction mixture was incubated for 1 h at 30°C and then delivered to filter-paper for detection; data were analyzed using Excel and GraphPad Prism 5 software for IC50 curve fits. For SAM competition experiments, the same procedure was used with different SAM concentration (1, 2.5. 5, and 10 μM) and H3/H4 octamer as the substrate.

[1] = PAMPA-BBB (porcine brain lipid extract artificial membrane); type: in vitro ADME
Experimental: Donor solution (500 μM or 250 μM) was prepared by diluting 10 or 5 mM DMSO compound stock solution using phosphate buffer (pH 7.4, 0.01 M). Filter membrane was coated with 5 μl of BBB-specific lipid solution prepared dissolving 16 mg of PBL (Avanti Lipids Polar, 141101P) in 600 μl of n-dodecane. Donor solution (150 μl) was added to each well of the filter plate. To each well of the acceptor plate 300 μl of solution (5% DMSO in phosphate buffer) were added. Each compound was tested in triplicate. The sandwich was incubated for 24 h at room temperature under gentle shaking. After the incubation time, the sandwich plates were separated and 250 μl of the acceptor plate were transferred to a UV quartz microtiter plate and measured by UV spectroscopy, using a Multiskan GO microplate spectrophotometer (Thermo Scientific) at 250−500 nm at step of 5 nm. Reference solutions (250 μl) were prepared diluting the sample stock solutions to the same concentration as that with no membrane barrier. The BBB permeability value Log Pe is determined applying the equation:
log Pe= log{C⋅(−ln(1−[drug]acceptor/[drug]equilibrium))},
where C=(VD⋅VA/(VD+VA)area⋅time)
In this equation, VA is the volume of the acceptor compartment (0.3 cm^3), VD is the donor volume (0.15 cm^3), area is the accessible filter area (0.24 cm^2), and time is the incubation time in seconds.

DOT1L = DOT1L (Homo sapiens, UniProt Q8TEK3); test: Methyltransferase panel: DOT1L; type: biochemical; conditions: substrate nucleosomes
Experimental: as §2, §3

DAOY-SLCs = test: Cell viability, MTS assay, DAOY-SLCs; type: cell-based; conditions: 5 μM, after 48 h
Experimental: as §1

EZH1 complex = EZH1 complex (Homo sapiens, UniProt Q92800); test: Methyltransferase panel: EZH1 complex; type: biochemical
Experimental: as §2, §3

Which cell viability (DAOY cells) does the source give for Cc1cc(C)c(CNC(=O)c2cnn(-c3ccccc3)c2C)c(=O)[nH]1 [MC3629, N-((4,6-dimethyl-2-oxo-1,2-dihydropyridin-3-yl)methyl)-5-methyl-1-phenyl-1H-pyrazole-4-carboxamide] here?
Its cell viability is “impaired cell viability”.

And the inhibition at 200 µM (SET7/9)?
The inhibition at 200 µM was 5.2%.

What about the “mechanism of inhibition, SAM competition experiments” value (EZH2/PRC2; histone H3/H4 octamer substrate, SAM 1, 2.5, 5, 10 μM) of the same compound?
Its value is “SAM-dependent mechanism of inhibition”.

What about the IC50 (EZH2/PRC2; histone H3/H4 tetramer substrate, value printed in Figure 2B, read-out: IC50, EZH2/PRC2) of the same compound?
The IC50 was 5.27 µM.

And the IC50 (EZH2/PRC2; range over histone substrates (histone H3/H4 octamer, H3/H4 tetramer, histone H3, core histone), SAM co-substrate, 10-dose, 2-fold dilution from 400 μM, read-out: IC50 values, EZH2/PRC2)?
Its IC50 is 5.27 to 15.4 µM.

What about the Papp at 24 h ([1]; Pe in cm/s, pH 7.4, 24 h, room temperature, triplicate, read-out: Log Pe (converted)) of the same compound?
Its Papp at 24 h is 4.68 ×10⁻⁶ cm/s.

What about the “Δ Log Pe” value ([1]; respect to propranolol) of the same compound?
Its value is −0.12.

What about the inhibition at 200 µM (DOT1L) of the same compound?
Its inhibition at 200 µM is 3%.

What about the cell viability (DAOY-SLCs) of the same compound?
The cell viability was “impaired cell viability”.

And the inhibition at 200 µM (EZH1 complex; 200 μM, substrate histone H3/H4 octamer)?
The inhibition at 200 µM was 62.4%.

What about the IC50 (EZH1 complex; footnote of Supplementary Table 1) of the same compound?
The IC50 was 138 µM.
